Values quoted from earlier work, collected in patent US20080139483A1, “DRUG COMBINATION FOR HYPERTENSIVE DISORDERS” (priority 2006, published 2008).

Assays:
patients with PAH = details: does not appear to be dose related

- drug interactions (p450 induction or inhibition) (p450): no p450 induction or inhibition
Structure (SMILES): COC(c1ccccc1)(c1ccccc1)[C@H](Oc1nc(C)cc(C)n1)C(=O)O [ambrisentan]
- potential liver toxicity (patients with PAH): low incidence and severity of potential liver toxicity
